From US9283222B2 (priority 2006, dated 2016) come the findings set out here.

The first test deals with Recombinant Human Poly(ADP-Ribose) Polymerase (PARP), PARP-1 (Homo sapiens (Human), UniProt P09874). The note with it: read-out: PARP-1 (Ki).
Chain of Recombinant Human Poly(ADP-Ribose) Polymerase (PARP), PARP-1 (P09874 whole entry): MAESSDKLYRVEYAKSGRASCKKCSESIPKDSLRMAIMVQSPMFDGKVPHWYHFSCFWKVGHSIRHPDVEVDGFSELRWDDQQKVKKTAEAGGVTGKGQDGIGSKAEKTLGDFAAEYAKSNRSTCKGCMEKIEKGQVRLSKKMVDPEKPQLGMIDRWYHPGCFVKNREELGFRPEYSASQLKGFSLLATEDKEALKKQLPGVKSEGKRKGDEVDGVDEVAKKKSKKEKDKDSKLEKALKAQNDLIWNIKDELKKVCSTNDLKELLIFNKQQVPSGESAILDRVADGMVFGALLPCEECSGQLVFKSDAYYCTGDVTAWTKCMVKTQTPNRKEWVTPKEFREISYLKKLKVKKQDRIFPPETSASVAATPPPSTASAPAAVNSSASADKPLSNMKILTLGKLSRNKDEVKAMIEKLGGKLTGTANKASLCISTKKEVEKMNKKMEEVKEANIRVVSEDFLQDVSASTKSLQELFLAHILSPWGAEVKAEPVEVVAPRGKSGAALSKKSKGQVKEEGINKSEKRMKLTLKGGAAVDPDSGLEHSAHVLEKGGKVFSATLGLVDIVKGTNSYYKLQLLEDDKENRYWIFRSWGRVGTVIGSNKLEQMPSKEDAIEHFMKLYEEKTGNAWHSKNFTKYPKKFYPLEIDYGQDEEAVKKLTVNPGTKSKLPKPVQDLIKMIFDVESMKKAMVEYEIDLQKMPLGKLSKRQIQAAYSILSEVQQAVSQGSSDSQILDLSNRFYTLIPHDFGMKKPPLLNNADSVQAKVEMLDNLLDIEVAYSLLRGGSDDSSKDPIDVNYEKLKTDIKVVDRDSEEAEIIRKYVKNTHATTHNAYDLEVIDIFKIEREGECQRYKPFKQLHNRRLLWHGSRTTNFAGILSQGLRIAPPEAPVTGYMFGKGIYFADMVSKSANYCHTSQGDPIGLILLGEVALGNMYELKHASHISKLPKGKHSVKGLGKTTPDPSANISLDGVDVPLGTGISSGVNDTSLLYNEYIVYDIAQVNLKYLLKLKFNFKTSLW
Experimental: Nicotinamide[2,5′,8-3H]adenine dinucleotide and strepavidin SPA beads were purchased from Amersham Biosiences. […] NAD^+, histone, aminobenzamide, 3-amino benzamide and Calf Thymus DNA (dcDNA) were purchased from Sigma. Stem loop oligonucleotide containing MCAT sequence was obtained from Qiagen. The oligos were dissolved to 1 mM in annealing buffer containing 10 mM Tris HCl pH 7.5, 1 mM EDTA, and 50 mM NaCl, incubated for 5 minutes at 95° C., and annealed at 45° C. for 45 minutes. […] Biotinylated histone H1 was prepared by treating the protein with Sulfo-NHS-LC-Biotin from Pierce. The biotinylation reaction was conducted by slowly and intermittently adding 3 equivalents of 10 mM Sulfo-NHS-LC-Biotin to 100 μM Histone H1 in phosphate-buffered saline, pH 7.5, at 4° C. with gentle vortexing over 1 minute followed by subsequent 4° C. incubation for 1 hour. Streptavidin coated (FlashPlate Plus) microplates were purchased from Perkin Elmer.
PARP1 assay was conducted in PARP assay buffer containing 50 mM Tris pH 8.0, 1 mM DTT, 4 mM MgCl2. […] Auto reactions utilizing SPA bead-based detection were carried out in 100 μL volumes in white 96 well plates.
For `O=C(c1cc(Cc2n[nH]c(=O)c3c2NCCC3)ccc1F)N1CCN(C(=O)N2CCOCC2)CC1` [Example 473, 8-(4-fluoro-3-((4-(morpholin-4-ylcarbonyl)piperazin-1-yl)carbonyl)benzyl)-2,3,4,6-tetrahydropyrido(2,3-d)pyridazin-5(1H)-one], the Ki worked out at 2 nM.

Still in this test, the particulars now being: read-out: PARP-1 (Ki); Table 1; text calls the values EC50s.
Turning to `O=C(c1cccc(Cc2n[nH]c(=O)c3c2CCCC3)c1)N1CCN(CCOCCO)CC1` [Example 443, 4-(3-((4-(2-(2-hydroxyethoxy)ethyl)piperazin-1-yl)carbonyl)benzyl)-5,6,7,8-tetrahydrophthalazin-1(2H)-one], the Ki was 16 nM.

Take `O=C(c1cccc(Cc2n[nH]c(=O)c3c2CCCC3)c1)N1CCN(c2ccccc2F)CC1` [Example 444, 4-(3-((4-(2-fluorophenyl)piperazin-1-yl)carbonyl)benzyl)-5,6,7,8-tetrahydrophthalazin-1(2H)-one]: the Ki was 4 nM.

Take `O=C(c1cccc(Cc2n[nH]c(=O)c3c2CCCC3)c1)N1CCN(c2ccc(F)cc2)CC1` [Example 445, 4-(3-((4-(4-fluorophenyl)piperazin-1-yl)carbonyl)benzyl)-5,6,7,8-tetrahydrophthalazin-1(2H)-one]: the Ki stood at 6 nM.

With `O=C(c1cccc(Cc2n[nH]c(=O)c3c2CCCC3)c1)N1CCN(c2ccccc2Cl)CC1` [Example 446, 4-(3-((4-(2-chlorophenyl)piperazin-1-yl)carbonyl)benzyl)-5,6,7,8-tetrahydrophthalazin-1(2H)-one], the Ki was determined as 10 nM.

`CN1CCCN(C(=O)c2cccc(Cc3n[nH]c(=O)c4c3CCCC4)c2)CC1` [Example 447, 4-(3-((4-methyl-1,4-diazepan-1-yl)carbonyl)benzyl)-5,6,7,8-tetrahydrophthalazin-1(2H)-one]: the Ki came out at 10 nM.

Regarding `O=c1[nH]nc(Cc2ccc(F)c(N3CCCCS3(=O)=O)c2)c2c1CCCC2` [Example 448], the Ki was 694 nM.

As to `O=C1CCN1c1cc(Cc2n[nH]c(=O)c3cccnc23)ccc1F` [Example 449, 8-(4-fluoro-3-(2-oxoazetidin-1-yl)benzyl)pyrido(2,3-d)pyridazin-5(6H)-one], the Ki was determined as 103 nM.

Consider `O=c1[nH]nc(Cc2ccc(F)c(Cl)c2)c2c1CCCN2` [Example 450, 8-(3-chloro-4-fluorobenzyl)-2,3,4,6-tetrahydropyrido(2,3-d)pyridazin-5(1H)-one], for which the Ki is 122 nM.

Regarding `CC(c1ccc(F)c(N2CCC2=O)c1)c1n[nH]c(=O)c2c1CCCC2` (stereo not drawn) [Example 451, 4-(1-(4-fluoro-3-(2-oxoazetidin-1-yl)phenyl)ethyl)-5,6,7,8-tetrahydrophthalazin-1(2H)-one], the Ki was determined as 56 nM.

On to `O=C(CN1CCCC1=O)Nc1cc(Cc2n[nH]c(=O)c3c2CCCC3)ccc1F` [Example 453, N-(2-fluoro-5-((4-oxo-3,4,5,6,7,8-hexahydrophthalazin-1-yl)methyl)phenyl)-2-(2-oxopyrrolidin-1-yl)acetamide], for which the Ki amounted to 14 nM.

Regarding `Cc1c(C(=O)Nc2cc(Cc3n[nH]c(=O)c4c3CCCC4)ccc2F)cnn1-c1ccccc1` [Example 454, N-(2-fluoro-5-((4-oxo-3,4,5,6,7,8-hexahydrophthalazin-1-yl)methyl)phenyl)-5-methyl-1-phenyl-1H-pyrazole-4-carboxamide], the Ki was 16 nM.

Consider `CC(=O)CCCC(=O)Nc1cc(Cc2n[nH]c(=O)c3c2CCCC3)ccc1F` [Example 455, N-(2-fluoro-5-((4-oxo-3,4,5,6,7,8-hexahydrophthalazin-1-yl)methyl)phenyl)-5-oxohexanamide], for which the Ki was found to be 1.3 nM.

On to `COCCC(=O)Nc1cc(Cc2n[nH]c(=O)c3c2CCCC3)ccc1F` [Example 456, N-(2-fluoro-5-((4-oxo-3,4,5,6,7,8-hexahydrophthalazin-1-yl)methyl)phenyl)-3-methoxypropanamide], for which the Ki amounted to 5 nM.

On to `O=C(CCCC(=O)Nc1cc(Cc2n[nH]c(=O)c3c2CCCC3)ccc1F)Nc1ccccc1` [Example 457, N-(2-fluoro-5-((4-oxo-3,4,5,6,7,8-hexahydrophthalazin-1-yl)methyl)phenyl)-N′-phenylpentanediamide], for which the Ki was 0.7 nM.

As to `Nc1cc(Cc2n[nH]c(=O)c3cccnc23)ccc1F` [Example 463, 8-(3-amino-4-fluorobenzyl)pyrido(2,3-d)pyridazin-5(6H)-one], the Ki is 1880 nM.

Turning to `COC(=O)c1cc(Cc2n[nH]c(=O)c3c2NCCC3)ccc1F` [Example 465, methyl 2-fluoro-5-((5-oxo-1,2,3,4,5,6-hexahydropyrido(2,3-d)pyridazin-8-yl)methyl)benzoate], the Ki worked out at 3.5 nM.

Regarding `O=C(O)c1cc(Cc2n[nH]c(=O)c3c2NCCC3)ccc1F` [Example 468, 2-fluoro-5-((5-oxo-1,2,3,4,5,6-hexahydropyrido(2,3-d)pyridazin-8-yl)methyl)benzoic acid], the Ki amounted to 249 nM.

For the compound `O=C(NC1CCC1)c1cc(Cc2n[nH]c(=O)c3c2NCCC3)ccc1F` [Example 471, N-cyclobutyl-2-fluoro-5-((5-oxo-1,2,3,4,5,6-hexahydropyrido(2,3-d)pyridazin-8-yl)methyl)benzamide], the Ki was determined as 51 nM.

With `O=C(CCOc1ccccc1)Nc1cc(Cc2n[nH]c(=O)c3c2NCCC3)ccc1F` [Example 478, N-(2-fluoro-5-((5-oxo-1,2,3,4,5,6-hexahydropyrido(2,3-d)pyridazin-8-yl)methyl)phenyl)-3-phenoxypropanamide], the Ki came to 2 nM.

For `O=C(COc1ccc(OCc2ccccc2)cc1)Nc1cc(Cc2n[nH]c(=O)c3c2NCCC3)ccc1F` [Example 481, 2-(4-(benzyloxy)phenoxy)-N-(2-fluoro-5-((5-oxo-1,2,3,4,5,6-hexahydropyrido(2,3-d)pyridazin-8-yl)methyl)phenyl)acetamide], the Ki is 12 nM.

Regarding `CCOCCN1CCN(C(=O)c2cc(Cc3n[nH]c(=O)c4c3NCCC4)ccc2F)CC1` [Example 485, 8-(3-((4-(2-ethoxyethyl)piperazin-1-yl)carbonyl)-4-fluorobenzyl)-2,3,4,6-tetrahydropyrido(2,3-d)pyridazin-5(1H)-one], the Ki is 14 nM.

As to `O=C(NCCN1CCCCC1)c1cc(Cc2n[nH]c(=O)c3c2NCCC3)ccc1F` [Example 486, 2-fluoro-5-((5-oxo-1,2,3,4,5,6-hexahydropyrido(2,3-d)pyridazin-8-yl)methyl)-N-(2-piperidin-1-ylethyl)benzamide], the Ki came to 15 nM.

As for `O=C(NCC(=O)N1CCCCC1)c1cc(Cc2n[nH]c(=O)c3c2NCCC3)ccc1F` [Example 487, 2-fluoro-5-((5-oxo-1,2,3,4,5,6-hexahydropyrido(3,2-d)pyridazin-8-yl)methyl)-N-(2-oxo-2-(piperidin-1-yl)ethyl)benzamide], the Ki is 10 nM.

Turning to `O=C(c1cc(Cc2n[nH]c(=O)c3c2CCCC3)ccc1F)N1CCN(c2ncccn2)CC1` [Example 490, 4-(4-fluoro-3-((4-pyrimidin-2-ylpiperazin-1-yl)carbonyl)benzyl)-5,6,7,8-tetrahydrophthalazin-1(2H)-one], the Ki was 0.7 nM.

With `O=C1CCCN1c1cc(-c2n[nH]c(=O)c3c2CCCC3)ccc1F` [Example 491, 4-(4-fluoro-3-(2-oxopyrrolidin-1-yl)phenyl)-5,6,7,8-tetrahydrophthalazin-1(2H)-one], the Ki is 191 nM.

Take `CN(C)C(=O)N1CCN(C(=O)c2cc(Cc3n[nH]c(=O)c4c3CCCC4)ccc2F)CC1` [Example 494, 4-{2-fluoro-5-[(4-oxo-3,4,5,6,7,8-hexahydrophthalazin-1-yl)methyl]benzoyl}-N,N-dimethylpiperazine-1-carboxamide]: the Ki was found to be 0.9 nM.

Regarding `O=C(c1cc(Cc2n[nH]c(=O)c3c2CCCC3)ccc1F)N1CCN(C(=O)N2CCCCC2)CC1` [Example 495, 4-(4-fluoro-3-{[4-(piperidin-1-ylcarbonyl)piperazin-1-yl]carbonyl}benzyl)-5,6,7,8-tetrahydrophthalazin-1(2H)-one], the Ki stood at 1.9 nM.

In the case of `O=C(c1cc(Cc2n[nH]c(=O)c3c2CCCC3)ccc1F)N1CCN(c2cnccn2)CC1` [Example 496, 4-{4-fluoro-3-[(4-pyrazin-2-ylpiperazin-1-yl)carbonyl]benzyl}-5,6,7,8-tetrahydrophthalazin-1(2H)-one], the Ki is 0.8 nM.

As for `O=C(c1cc(Cc2n[nH]c(=O)c3c2CCCC3)ccc1F)N1CCN(c2ccncc2)CC1` [Example 497, 4-{4-fluoro-3-[(4-pyridin-4-ylpiperazin-1-yl)carbonyl]benzyl}-5,6,7,8-tetrahydrophthalazin-1(2H)-one], the Ki was 1.1 nM.

Turning to `NC(=O)C1CCN(C(=O)c2cc(Cc3n[nH]c(=O)c4c3CCCC4)ccc2F)CC1` [Example 498, 1-{2-fluoro-5-[(4-oxo-3,4,5,6,7,8-hexahydrophthalazin-1-yl)methyl]benzoyl}piperidine-4-carboxamide], the Ki was 2.7 nM.

Consider `Cc1cncc(N2CCN(C(=O)c3cc(Cc4n[nH]c(=O)c5c4CCCC5)ccc3F)CC2)n1` [Example 499, 4-(4-fluoro-3-{[4-(6-methylpyrazin-2-yl)piperazin-1-yl]carbonyl}benzyl)-5,6,7,8-tetrahydrophthalazin-1(2H)-one], for which the Ki worked out at 1.6 nM.

Take `NC(=O)C1CCCN(C(=O)c2cc(Cc3n[nH]c(=O)c4c3CCCC4)ccc2F)C1` (stereo not drawn) [Example 500, 1-{2-fluoro-5-[(4-oxo-3,4,5,6,7,8-hexahydrophthalazin-1-yl)methyl]benzoyl}piperidine-3-carboxamide]: the Ki stood at 3 nM.

Turning to `CN(C)CCN1CCN(C(=O)c2cc(Cc3n[nH]c(=O)c4c3CCCC4)ccc2F)CC1` [Example 501, 4-[3-({4-[2-(dimethylamino)ethyl]piperazin-1-yl}carbonyl)-4-fluorobenzyl]-5,6,7,8-tetrahydrophthalazin-1(2H)-one], the Ki is 4 nM.

Turning to `CN1CCCN(C(=O)c2cc(Cc3n[nH]c(=O)c4c3CCCC4)ccc2F)CC1` [Example 502, 4-{4-fluoro-3-[(4-methyl-1,4-diazepan-1-yl)carbonyl]benzyl}-5,6,7,8-tetrahydrophthalazin-1(2H)-one], the Ki turned out to be 1.5 nM.

Consider `O=C(c1cc(Cc2n[nH]c(=O)c3c2CCCC3)ccc1F)N1CCC(O)CC1` [Example 503, 4-{4-fluoro-3-[(4-hydroxypiperidin-1-yl)carbonyl]benzyl}-5,6,7,8-tetrahydrophthalazin-1(2H)-one], for which the Ki stood at 1.3 nM.

As a reminder, the Ki is a dissociation constant, usually derived from enzyme kinetics or from competition with a known ligand.
